PMC3961306, “Comparison of the Cancer Gene Targeting and Biochemical Selectivities of All Targeted Kinase Inhibitors Approved for Clinical Use” (PLoS ONE, 2014)

Columns and labels:
Test in all cases: Kinase profiling in a biochemical assay panel (mobility shift assays and ELISA), %-inhibition at 1 μM; selectivity entropy
[1] = biological target: T1, panel of more than 300 wild-type and mutant kinases (313 kinase panel) (Homo sapiens, UniProt O00418)
T1 sequence (O00418 1-725): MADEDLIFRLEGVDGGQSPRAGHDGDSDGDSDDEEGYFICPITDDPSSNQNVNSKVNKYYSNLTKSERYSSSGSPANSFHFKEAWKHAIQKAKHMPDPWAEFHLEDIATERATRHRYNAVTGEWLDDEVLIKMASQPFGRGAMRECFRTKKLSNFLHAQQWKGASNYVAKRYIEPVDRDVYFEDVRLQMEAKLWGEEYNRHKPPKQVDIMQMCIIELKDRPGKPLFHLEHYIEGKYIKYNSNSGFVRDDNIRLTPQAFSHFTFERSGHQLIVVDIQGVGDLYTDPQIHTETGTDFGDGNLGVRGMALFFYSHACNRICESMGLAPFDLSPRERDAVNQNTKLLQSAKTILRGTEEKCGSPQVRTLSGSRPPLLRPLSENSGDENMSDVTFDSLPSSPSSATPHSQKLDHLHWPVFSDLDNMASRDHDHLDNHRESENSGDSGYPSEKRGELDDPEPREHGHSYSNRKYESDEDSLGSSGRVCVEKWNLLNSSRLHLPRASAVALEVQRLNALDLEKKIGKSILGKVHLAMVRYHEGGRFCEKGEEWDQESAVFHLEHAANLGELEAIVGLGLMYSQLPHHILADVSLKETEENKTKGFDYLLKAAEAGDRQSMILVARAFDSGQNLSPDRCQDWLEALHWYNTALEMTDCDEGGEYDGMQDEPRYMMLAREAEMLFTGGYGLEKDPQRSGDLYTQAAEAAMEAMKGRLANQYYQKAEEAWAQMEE

[2] = biological target: panel of more than 300 wild-type and mutant kinases (313 kinase panel) (Homo sapiens, UniProt P04049)
[3] = biological target: panel of more than 300 wild-type and mutant kinases (313 kinase panel) (Homo sapiens, UniProt P06241)
[4] = biological target: panel of more than 300 wild-type and mutant kinases (313 kinase panel) (Homo sapiens, UniProt P42336)
[5] = biological target: T2, panel of more than 300 wild-type and mutant kinases (313 kinase panel) (Homo sapiens, UniProt Q12852)
T2 sequence (Q12852 1-859): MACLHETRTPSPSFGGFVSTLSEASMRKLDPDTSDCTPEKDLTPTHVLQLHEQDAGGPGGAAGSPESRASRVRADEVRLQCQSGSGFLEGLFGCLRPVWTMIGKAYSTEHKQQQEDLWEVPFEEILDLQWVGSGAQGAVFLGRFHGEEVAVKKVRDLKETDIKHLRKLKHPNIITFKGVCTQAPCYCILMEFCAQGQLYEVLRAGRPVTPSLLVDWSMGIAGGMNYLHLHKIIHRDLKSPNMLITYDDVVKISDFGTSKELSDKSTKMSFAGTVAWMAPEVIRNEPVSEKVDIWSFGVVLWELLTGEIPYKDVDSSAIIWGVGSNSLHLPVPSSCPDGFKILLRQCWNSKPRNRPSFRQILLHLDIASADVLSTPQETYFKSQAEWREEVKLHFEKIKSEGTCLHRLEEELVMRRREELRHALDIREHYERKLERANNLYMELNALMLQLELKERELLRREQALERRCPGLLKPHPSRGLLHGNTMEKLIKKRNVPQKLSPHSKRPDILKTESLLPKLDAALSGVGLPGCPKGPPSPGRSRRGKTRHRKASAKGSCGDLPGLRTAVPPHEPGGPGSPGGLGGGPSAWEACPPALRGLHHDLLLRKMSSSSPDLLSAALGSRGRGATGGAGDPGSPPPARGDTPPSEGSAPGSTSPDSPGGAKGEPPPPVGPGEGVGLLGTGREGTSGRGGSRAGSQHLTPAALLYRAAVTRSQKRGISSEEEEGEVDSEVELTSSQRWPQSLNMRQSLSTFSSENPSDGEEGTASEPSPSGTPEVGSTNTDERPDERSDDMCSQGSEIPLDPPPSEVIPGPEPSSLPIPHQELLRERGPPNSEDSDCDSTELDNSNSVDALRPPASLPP

[6] = biological target: panel of more than 300 wild-type and mutant kinases (313 kinase panel) (Homo sapiens, UniProt P27448)
[7] = biological target: panel of more than 300 wild-type and mutant kinases (313 kinase panel) (Homo sapiens, UniProt P45984)
[8] = biological target: panel of more than 300 wild-type and mutant kinases (313 kinase panel) (Homo sapiens, UniProt P49137)
[9] = biological target: T3, panel of more than 300 wild-type and mutant kinases (313 kinase panel) (Homo sapiens, UniProt P52564)
T3 sequence (P52564 1-334): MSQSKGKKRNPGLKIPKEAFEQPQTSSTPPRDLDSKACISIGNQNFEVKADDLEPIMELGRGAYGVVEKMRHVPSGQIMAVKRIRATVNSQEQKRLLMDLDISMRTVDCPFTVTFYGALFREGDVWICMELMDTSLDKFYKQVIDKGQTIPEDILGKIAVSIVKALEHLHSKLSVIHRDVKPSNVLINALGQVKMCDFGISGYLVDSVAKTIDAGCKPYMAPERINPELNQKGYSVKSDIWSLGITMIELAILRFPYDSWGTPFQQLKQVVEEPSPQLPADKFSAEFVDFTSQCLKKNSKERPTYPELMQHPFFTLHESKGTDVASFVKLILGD

[10] = kinase MAPKAPK2, compound at 1 μM
[11] = kinase MAP2K6, compound at 1 μM

Chain of panel of more than 300 wild-type and mutant kinases (313 kinase panel) (Homo sapiens, UniProt P49137) (P49137 whole entry, change not shown): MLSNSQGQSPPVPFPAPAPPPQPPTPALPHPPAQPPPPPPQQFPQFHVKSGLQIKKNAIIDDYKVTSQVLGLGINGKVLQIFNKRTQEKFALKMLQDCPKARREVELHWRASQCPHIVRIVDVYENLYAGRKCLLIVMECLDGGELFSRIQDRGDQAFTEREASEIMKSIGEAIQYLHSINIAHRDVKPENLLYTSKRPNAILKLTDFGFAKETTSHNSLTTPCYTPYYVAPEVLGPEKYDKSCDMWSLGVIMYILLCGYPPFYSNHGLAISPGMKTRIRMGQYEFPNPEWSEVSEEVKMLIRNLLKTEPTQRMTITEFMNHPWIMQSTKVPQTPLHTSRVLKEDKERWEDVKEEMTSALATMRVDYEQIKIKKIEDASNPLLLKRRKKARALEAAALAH
Chain of panel of more than 300 wild-type and mutant kinases (313 kinase panel) (Homo sapiens, UniProt P04049) (P04049 whole entry, change not shown): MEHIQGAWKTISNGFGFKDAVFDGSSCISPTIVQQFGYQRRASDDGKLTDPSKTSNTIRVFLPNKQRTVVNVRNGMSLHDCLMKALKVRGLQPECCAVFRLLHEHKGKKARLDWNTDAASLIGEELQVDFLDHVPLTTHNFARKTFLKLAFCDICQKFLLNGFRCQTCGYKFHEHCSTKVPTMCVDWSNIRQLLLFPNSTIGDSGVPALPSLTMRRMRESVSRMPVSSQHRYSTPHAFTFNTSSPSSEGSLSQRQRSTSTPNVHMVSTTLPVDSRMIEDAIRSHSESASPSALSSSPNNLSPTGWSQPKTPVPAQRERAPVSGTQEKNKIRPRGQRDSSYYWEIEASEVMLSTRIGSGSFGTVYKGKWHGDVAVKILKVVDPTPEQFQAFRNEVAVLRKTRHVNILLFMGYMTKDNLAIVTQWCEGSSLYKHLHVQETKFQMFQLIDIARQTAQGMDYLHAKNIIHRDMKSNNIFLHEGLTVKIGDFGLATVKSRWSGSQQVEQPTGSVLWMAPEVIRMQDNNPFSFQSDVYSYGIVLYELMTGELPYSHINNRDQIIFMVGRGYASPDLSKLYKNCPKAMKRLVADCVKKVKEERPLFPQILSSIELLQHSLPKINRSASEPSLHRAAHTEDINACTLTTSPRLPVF
Chain of panel of more than 300 wild-type and mutant kinases (313 kinase panel) (Homo sapiens, UniProt P27448) (P27448 whole entry, change not shown): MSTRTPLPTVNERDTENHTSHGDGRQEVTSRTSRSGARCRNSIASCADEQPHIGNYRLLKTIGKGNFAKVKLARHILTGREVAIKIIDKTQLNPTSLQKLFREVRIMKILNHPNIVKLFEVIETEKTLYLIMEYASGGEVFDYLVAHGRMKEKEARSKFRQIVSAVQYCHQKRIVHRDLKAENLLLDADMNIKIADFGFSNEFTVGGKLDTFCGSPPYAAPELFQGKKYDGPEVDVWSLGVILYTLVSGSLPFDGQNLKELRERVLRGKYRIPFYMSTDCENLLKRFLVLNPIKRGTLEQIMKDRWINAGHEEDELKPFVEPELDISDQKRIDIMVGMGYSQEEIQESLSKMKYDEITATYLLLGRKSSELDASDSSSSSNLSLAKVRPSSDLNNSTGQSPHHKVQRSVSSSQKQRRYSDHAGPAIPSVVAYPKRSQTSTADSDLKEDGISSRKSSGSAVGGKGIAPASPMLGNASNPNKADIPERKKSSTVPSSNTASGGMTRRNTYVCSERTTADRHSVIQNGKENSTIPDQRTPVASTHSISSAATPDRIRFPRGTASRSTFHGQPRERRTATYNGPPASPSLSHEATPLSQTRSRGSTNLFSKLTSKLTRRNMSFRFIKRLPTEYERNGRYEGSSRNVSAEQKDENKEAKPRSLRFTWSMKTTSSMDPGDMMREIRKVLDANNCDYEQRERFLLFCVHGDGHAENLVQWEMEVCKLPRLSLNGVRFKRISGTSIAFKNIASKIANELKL
Chain of panel of more than 300 wild-type and mutant kinases (313 kinase panel) (Homo sapiens, UniProt P45984) (P45984 whole entry, change not shown): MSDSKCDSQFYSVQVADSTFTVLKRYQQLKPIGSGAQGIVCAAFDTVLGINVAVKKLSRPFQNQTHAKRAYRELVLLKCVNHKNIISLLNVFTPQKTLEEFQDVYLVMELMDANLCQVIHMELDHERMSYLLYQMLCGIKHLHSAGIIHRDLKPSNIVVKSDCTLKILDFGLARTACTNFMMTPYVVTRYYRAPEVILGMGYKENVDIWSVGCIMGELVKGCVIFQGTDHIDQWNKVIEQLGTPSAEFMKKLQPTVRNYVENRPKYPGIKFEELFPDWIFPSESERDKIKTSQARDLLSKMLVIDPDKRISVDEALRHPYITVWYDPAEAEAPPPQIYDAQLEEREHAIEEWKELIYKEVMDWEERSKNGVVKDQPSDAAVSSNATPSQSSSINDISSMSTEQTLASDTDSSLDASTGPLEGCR
Chain of panel of more than 300 wild-type and mutant kinases (313 kinase panel) (Homo sapiens, UniProt P06241) (P06241 whole entry, change not shown): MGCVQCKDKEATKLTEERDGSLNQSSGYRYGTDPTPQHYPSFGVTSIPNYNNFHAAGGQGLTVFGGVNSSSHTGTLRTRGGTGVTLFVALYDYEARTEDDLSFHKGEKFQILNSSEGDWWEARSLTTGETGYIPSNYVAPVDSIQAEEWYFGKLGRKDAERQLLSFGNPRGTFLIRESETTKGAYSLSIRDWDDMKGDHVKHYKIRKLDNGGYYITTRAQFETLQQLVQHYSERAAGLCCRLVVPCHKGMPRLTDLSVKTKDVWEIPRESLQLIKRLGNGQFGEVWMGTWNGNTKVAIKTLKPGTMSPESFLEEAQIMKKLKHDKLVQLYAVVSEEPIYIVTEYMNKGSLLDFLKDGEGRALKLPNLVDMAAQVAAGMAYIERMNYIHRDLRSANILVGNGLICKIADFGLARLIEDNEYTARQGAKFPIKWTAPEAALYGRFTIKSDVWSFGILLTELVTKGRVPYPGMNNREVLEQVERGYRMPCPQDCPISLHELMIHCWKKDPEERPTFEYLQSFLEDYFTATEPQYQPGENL

Compound	%-inhibition of EEF2K ([1]; kinase EEF2K, compound at 1 μM)	%-inhibition of RAF1 ([2]; kinase RAF1, 1 μM)	%-inhibition of FYN ([3]; kinase FYN, compound at 1 μM)	%-inhibition of PIK3CA/PIK3R1 ([4]; kinase PIK3CA/PIK3R1, 1 μM)	%-inhibition of DLK ([5]; kinase DLK, compound at 1 μM)	%-inhibition of MARK3 ([6]; kinase MARK3, compound at 1 μM)	%-inhibition of JNK2 ([7]; kinase JNK2, compound at 1 μM)	%-inhibition of MAPKAPK2 [8, 10]	%-inhibition of MAP2K6 [9, 11]	%-inhibition of EEF2K ([1]; 1 µM)	%-inhibition of RAF1 ([2]; 1 µM)	%-inhibition of FYN ([3]; 1 µM)	%-inhibition of MARK3 ([6]; 1 µM)	%-inhibition of PIK3CA/PIK3R1 ([4]; 1 µM)	%-inhibition of JNK2 ([7]; 1 µM)	%-inhibition of MAPKAPK2 ([8]; 1 µM)	%-inhibition of MAP2K6 ([9]; 1 µM)	%-inhibition of DLK ([5]; 1 µM)
COc1cc(Nc2c(C#N)cnc3cc(OCCCN4CCN(C)CC4)c(OC)cc23)c(Cl)cc1Cl [bosutinib]	-7%	-3%	95%	37%	77%	–	–	–	–	–	–	–	–	–	–	–	–	–
COc1cc2nccc(Oc3ccc(NC(=O)C4(C(=O)Nc5ccc(F)cc5)CC4)cc3)c2cc1OC [cabozantinib]	-4.74%	48%	91%	48%	36%	-3%	4%	-17%	83%	–	–	–	–	–	–	–	–	–
C[C@@H](Oc1cc(-c2cnn(C3CCNCC3)c2)cnc1N)c1c(Cl)ccc(F)c1Cl [crizotinib]	-4.6%	11%	42%	–	86%	41%	-2.59%	-17%	19%	–	–	–	–	–	–	–	–	–
CC(C)(C)c1nc(-c2cccc(NS(=O)(=O)c3c(F)cccc3F)c2F)c(-c2ccnc(N)n2)s1 [dabrafenib]	–	99%	–	4.42%	-10%	4%	-0.947%	–	1.34%	–	–	–	–	–	–	–	–	–
Cc1nc(Nc2ncc(C(=O)Nc3c(C)cccc3Cl)s2)cc(N2CCN(CCO)CC2)n1 [dasatinib]	–	–	100%	–	20%	–	–	–	47%	–	–	–	–	–	–	–	–	–
C#Cc1cccc(Nc2ncnc3cc(OCCOC)c(OCCOC)cc23)c1 [erlotinib]	–	–	–	–	–	–	–	–	–	-0.225%	0.534%	34%	9%	11%	13%	4.42%	6%	-1.89%
CO[C@H]1C[C@@H]2CC[C@@H](C)[C@@](O)(O2)C(=O)C(=O)N2CCCC[C@H]2C(=O)O[C@H]([C@H](C)C[C@@H]2CC[C@@H](OCCO)[C@H](OC)C2)CC(=O)[C@H](C)/C=C(\C)[C@@H](O)[C@@H](OC)C(=O)[C@H](C)C[C@H](C)/C=C/C=C/C=C/1C [everolimus]	-14%	14%	-0.928%	22%	-5%	-4%	-5.37%	-18%	13%	–	–	–	–	–	–	–	–	–
CS(=O)(=O)CCNCc1ccc(-c2ccc3ncnc(Nc4ccc(OCc5cccc(F)c5)c(Cl)c4)c3c2)o1 [lapatinib]	-2.58%	8%	1.29%	–	-3.44%	–	-8%	–	–	–	–	–	3.43%	-9%	–	–	9%	–
Cc1ccc(Nc2nccc(N(C)c3ccc4c(C)n(C)nc4c3)n2)cc1S(N)(=O)=O [pazopanib]	-3%	85%	–	45%	40%	4.45%	–	-2.44%	78%	–	–	–	–	–	–	–	–	–
Cc1ccc(C(=O)Nc2ccc(CN3CCN(C)CC3)c(C(F)(F)F)c2)cc1C#Cc1cnc2cccnn12 [ponatinib]	-4%	96%	101%	45%	84%	–	–	–	–	–	–	–	–	–	–	–	–	–
N#CC[C@H](C1CCCC1)n1cc(-c2ncnc3[nH]ccc23)cn1 [ruxolitinib]	-6%	–	11%	42%	–	–	-6%	-18%	44%	–	9%	–	–	–	–	–	–	-0.311%
CCN(CC)CCNC(=O)c1c(C)[nH]c(/C=C2\C(=O)Nc3ccc(F)cc32)c1C [sunitinib]	–	–	88%	–	–	–	–	–	–	–	–	–	–	–	–	–	–	–
